The record followed here is US12583884B2, “3beta-(benzyloxy)-17alpha-methyl-pregn-5-en-20-one for use in the treatment of cognitive disorders” (AELIS FARMA, priority 2018, dated 2026).

Usually inhibition stands for the drop in the measured response relative to a control, in per cent. The % Inhibition is the relative decrease from the control value, in per cent.

In one series the target is T1, Vasopressin V1a (Homo sapiens, UniProt P37288).
T1 construct: CEREP (contract panel)
Description: CEREP binding profile: V1a. The source says: (§1) The CEREP High-throughput profile consists of a broad collection of 80 transmembrane and soluble receptors, ion channels and G-Protein coupled receptors.

The target of the next series is T2, Dopamine D3 (Homo sapiens, UniProt P35462).
T2 construct: CEREP
Description: CEREP binding profile: D3.
Excerpt: as §1

In series [1] the target is T3, Steroid nuclear receptors AR (Homo sapiens, UniProt P10275).
T3 construct: CEREP
Description: Binding: AR.
Excerpt: as §1

The next series concerns the target T4, Dopamine D4.4 (Homo sapiens, UniProt P21917).
T4 construct: CEREP
Description: CEREP binding profile: D4.4.
Excerpt: as §1

A further series has as its system Na+ channels Na+-site 2. Description: CEREP binding profile: Na+-site 2. The settings on record: 10 μM.
Excerpt: as §1

A further series in a line: in vivo. The settings on record: Ts65Dn and WT, mouse. The source says:
At the end of the behavioral study, mice were sacrificed, blood and brain samples were collected.

The test system of another series is 85 receptors. Description: CEREP High-throughput binding profile (85 receptors), whole panel.
Excerpt: as §1

Another series concerns Adrenergic alpha1. Description: CEREP binding profile: alpha1. The settings on record: 10 μM.
Excerpt: as §1

Series [2] relates to 19 to 22-month-old C57B1/6J mice. Description: Declarative/relational memory (radial maze flexibility test), aged mice. Format: in vivo, mouse. The settings on record: 0.6 μg/ml in drinking water, chance level 50%. Here is the method:
The relational memory task was performed using 8-arm radial mazes described in Example 3b. Food restriction and habituation procedures were performed as described in Example 3b. Acquisition began 24 h after the last habituation session. The acquisition stage consisted in learning the positions of the food pellets within the maze. […] One arm of each pair contained reward at its end, the other arm of each pair was not baited.
Acquisition is based on a go-no go procedure. The arms are presented one by one. Subjects are expected to visit the rewarded arms faster than the non-rewarded arms. At the beginning of each daily session, the mouse was placed at the center of the maze with no access to the arms. The doors of the first arm then opened. […] The door of an arm then open immediately after (0-sec inter-trial interval). […] Each daily session contained 40 successive arm presentations (i.e. trials) organized into two distinct temporal sequences. In the first sequence (20 trials), four arms of the maze were presented alternatively (two baited and two non-baited). Consecutively, the second sequence started (20 trials); the four other arms of the maze were presented alternatively (two baited and two non-baited). […]
At each trial, the latency to visit the arm is measured. […]
Flexibility of learning was evaluated in the following conditions. […]
The percentage of correct responses for each pair was measured. […]

Series [3] addresses T5, Transporters Norepinephrine (Homo sapiens, UniProt P23975).
T5 construct: CEREP (contract panel)
Description: CEREP binding profile: norepinephrine transporter.
Excerpt: as §1

The target in the next series is T6, Dopamine D5 (Homo sapiens, UniProt P21918).
T6 construct: CEREP
Description: CEREP binding profile: D5.
Excerpt: as §1

The test system of series [4] is primary culture of rat hepatocytes. Description: Hepatotoxicity in primary culture of hepatocytes. Type of series: cell-based. The settings on record: 0.1 to 100 μM; 48 hours. As to the method: The percentage of cytolysed hepatocytes over time was determined by time lapse imaging with a fluorescent cytolysis marker. The number of bile canaliculi after 48 hours of treatment was determined using a fluorescent bile salt analog.
Primary rat hepatocytes from 10-12 weeks old Wistar rats were isolated using a two-step collagenase perfusion method. After 24 hours, cells were covered with a layer of Matrigel to perform a sandwich configuration culture. […] Cells were then stained using a fluorescent bile salt analog to measure the bile canaliculi network state and the Bsep pump activity. Acetaminophen (30 mM) and Cyclosporin A (1 μM) were added as positive controls of hepatotoxicity and biliary canaliculi loss, respectively.

Series [5] concerns the target T7, Steroid nuclear receptors GR (Homo sapiens, UniProt P04150).
T7 construct: CEREP
Description: CEREP binding profile: GR.
Excerpt: as §1

Series [6] addresses T8, mutant human CB1 receptor (hCB1p.E1.49G) (Homo sapiens, UniProt P21554, E133G).
T8 construct: expressed in transfected cells; host or cells: HEK-293 (transient)
Description: THC-induced inhibition of cellular respiration in HEK-293-hCB1-Mut. Type of series: cell-based. The following applies: 100 nM, THC 1 μM. As to the method:
In a second study (FIG. 5B), HEK-293 cells were transiently transfected either with the wild-type hCB1-expressing plasmid (HEK-293-hCB1-WT) or with the mutant hCB1p.E1.49G-expressing plasmid (HEK-293-hCB1-Mut). In this mutant the glutamate amino acid at position 1.49 was substituted by a glycine. […] After 15 min of incubation, THC (0; 1 μM, dissolved in EtOH, 0.0034%) was added in the culture dishes for 30 minutes.
Cellular respiration was measured in a calibrated oxygraph equipped with a Clark electrode. Oxygen consumption (OC) rate was used to measure cellular respiration.

For series [7], the system named is Steroid nuclear receptors ER. Description: Binding: ER. The following applies: 10 μM.
Excerpt: as §1

The target of a further series is T9, Serotonin 5-HT6 (Homo sapiens, UniProt P50406).
T9 construct: CEREP (contract panel)
Description: CEREP binding profile: 5-HT6.
Excerpt: as §1

A further series addresses Neuropetide Y N1 (Homo sapiens, UniProt P25929). Description: CEREP binding profile: N1.
Excerpt: as §1

Read-outs that look alike come from different tables or passages of the source. Some results are limits rather than exact numbers.

Chain of Neuropetide Y N1 (P25929 whole entry): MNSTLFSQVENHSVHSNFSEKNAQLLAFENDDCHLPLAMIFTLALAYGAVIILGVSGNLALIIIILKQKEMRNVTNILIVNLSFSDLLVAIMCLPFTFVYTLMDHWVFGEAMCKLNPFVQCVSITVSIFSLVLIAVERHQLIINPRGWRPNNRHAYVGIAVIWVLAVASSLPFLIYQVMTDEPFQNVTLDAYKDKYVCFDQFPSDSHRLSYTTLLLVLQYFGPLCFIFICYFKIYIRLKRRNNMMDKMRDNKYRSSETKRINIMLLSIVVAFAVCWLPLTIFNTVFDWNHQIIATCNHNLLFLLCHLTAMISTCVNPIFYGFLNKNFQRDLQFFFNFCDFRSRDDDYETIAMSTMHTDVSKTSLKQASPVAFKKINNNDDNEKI
T4 sequence (P21917 whole entry): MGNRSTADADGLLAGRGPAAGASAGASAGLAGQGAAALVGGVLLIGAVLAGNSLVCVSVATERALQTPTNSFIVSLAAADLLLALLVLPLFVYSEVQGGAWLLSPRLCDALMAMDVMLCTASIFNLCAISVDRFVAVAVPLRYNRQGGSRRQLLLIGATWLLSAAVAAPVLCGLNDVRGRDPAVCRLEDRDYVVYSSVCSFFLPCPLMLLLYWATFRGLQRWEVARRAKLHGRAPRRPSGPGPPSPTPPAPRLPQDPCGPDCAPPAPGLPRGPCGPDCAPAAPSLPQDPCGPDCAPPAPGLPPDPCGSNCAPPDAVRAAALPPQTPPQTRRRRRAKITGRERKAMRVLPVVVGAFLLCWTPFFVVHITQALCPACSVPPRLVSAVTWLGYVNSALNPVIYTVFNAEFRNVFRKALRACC
T9 sequence (P50406 whole entry): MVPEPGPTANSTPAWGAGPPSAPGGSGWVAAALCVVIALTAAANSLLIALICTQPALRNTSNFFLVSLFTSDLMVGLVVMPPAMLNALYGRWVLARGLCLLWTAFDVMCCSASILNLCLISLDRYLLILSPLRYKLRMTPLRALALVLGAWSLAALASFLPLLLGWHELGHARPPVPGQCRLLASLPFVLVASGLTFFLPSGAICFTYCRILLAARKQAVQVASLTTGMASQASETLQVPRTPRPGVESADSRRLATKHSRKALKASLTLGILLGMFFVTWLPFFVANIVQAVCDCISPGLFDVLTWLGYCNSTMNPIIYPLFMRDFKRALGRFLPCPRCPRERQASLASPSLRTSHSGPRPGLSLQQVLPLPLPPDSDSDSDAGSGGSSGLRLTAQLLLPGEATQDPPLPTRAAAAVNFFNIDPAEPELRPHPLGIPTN
T1 sequence (P37288 whole entry): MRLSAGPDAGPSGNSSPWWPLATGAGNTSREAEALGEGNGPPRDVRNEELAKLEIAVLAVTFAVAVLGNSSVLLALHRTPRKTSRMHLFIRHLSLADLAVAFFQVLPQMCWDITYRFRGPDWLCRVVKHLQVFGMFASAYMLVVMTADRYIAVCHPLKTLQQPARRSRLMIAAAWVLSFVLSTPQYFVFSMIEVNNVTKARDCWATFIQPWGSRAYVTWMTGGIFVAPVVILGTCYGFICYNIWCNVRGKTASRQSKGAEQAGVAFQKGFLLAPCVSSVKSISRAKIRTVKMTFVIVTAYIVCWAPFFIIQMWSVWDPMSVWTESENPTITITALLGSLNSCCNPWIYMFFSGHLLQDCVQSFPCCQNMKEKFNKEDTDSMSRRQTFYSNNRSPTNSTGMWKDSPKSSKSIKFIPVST
T2 sequence (P35462 whole entry): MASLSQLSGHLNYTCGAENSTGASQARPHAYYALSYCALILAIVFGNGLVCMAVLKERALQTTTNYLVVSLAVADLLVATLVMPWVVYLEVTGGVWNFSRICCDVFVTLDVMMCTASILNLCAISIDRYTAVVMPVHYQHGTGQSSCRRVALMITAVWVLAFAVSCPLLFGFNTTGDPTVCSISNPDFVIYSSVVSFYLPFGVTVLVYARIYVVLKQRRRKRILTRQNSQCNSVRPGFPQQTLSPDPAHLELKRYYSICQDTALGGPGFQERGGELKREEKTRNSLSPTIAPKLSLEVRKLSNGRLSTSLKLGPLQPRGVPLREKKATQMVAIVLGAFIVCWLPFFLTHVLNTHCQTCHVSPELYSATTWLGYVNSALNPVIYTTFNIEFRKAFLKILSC
T6 sequence (P21918 whole entry): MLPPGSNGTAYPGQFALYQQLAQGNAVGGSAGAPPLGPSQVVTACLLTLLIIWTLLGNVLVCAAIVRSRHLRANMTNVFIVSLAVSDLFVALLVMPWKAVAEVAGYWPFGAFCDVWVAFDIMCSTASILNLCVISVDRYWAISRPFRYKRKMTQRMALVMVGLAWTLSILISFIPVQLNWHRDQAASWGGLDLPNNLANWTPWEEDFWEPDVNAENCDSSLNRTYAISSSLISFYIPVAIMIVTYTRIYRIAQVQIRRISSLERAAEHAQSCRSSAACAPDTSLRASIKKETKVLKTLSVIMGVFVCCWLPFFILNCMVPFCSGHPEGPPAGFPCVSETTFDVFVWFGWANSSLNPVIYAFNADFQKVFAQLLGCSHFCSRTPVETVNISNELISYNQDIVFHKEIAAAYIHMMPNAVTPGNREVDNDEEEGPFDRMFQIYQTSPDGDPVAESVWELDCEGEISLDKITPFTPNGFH
T5 sequence (P23975 whole entry): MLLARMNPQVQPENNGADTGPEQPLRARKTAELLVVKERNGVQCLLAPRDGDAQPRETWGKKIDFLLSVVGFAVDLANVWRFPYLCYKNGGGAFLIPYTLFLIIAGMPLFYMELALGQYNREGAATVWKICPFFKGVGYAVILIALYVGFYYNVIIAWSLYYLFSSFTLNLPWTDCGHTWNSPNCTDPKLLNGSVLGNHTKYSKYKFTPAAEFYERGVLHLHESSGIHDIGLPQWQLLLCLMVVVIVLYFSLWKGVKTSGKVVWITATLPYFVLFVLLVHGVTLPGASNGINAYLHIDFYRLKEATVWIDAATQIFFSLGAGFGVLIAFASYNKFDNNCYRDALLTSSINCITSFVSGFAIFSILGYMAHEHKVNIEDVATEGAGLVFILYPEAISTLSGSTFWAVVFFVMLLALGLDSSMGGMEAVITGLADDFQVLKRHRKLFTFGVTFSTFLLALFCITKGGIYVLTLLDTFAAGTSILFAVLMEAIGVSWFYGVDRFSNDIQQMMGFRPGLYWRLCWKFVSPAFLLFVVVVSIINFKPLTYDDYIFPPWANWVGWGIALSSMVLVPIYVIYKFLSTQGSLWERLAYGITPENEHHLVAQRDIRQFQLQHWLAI
T3 sequence (P10275 whole entry): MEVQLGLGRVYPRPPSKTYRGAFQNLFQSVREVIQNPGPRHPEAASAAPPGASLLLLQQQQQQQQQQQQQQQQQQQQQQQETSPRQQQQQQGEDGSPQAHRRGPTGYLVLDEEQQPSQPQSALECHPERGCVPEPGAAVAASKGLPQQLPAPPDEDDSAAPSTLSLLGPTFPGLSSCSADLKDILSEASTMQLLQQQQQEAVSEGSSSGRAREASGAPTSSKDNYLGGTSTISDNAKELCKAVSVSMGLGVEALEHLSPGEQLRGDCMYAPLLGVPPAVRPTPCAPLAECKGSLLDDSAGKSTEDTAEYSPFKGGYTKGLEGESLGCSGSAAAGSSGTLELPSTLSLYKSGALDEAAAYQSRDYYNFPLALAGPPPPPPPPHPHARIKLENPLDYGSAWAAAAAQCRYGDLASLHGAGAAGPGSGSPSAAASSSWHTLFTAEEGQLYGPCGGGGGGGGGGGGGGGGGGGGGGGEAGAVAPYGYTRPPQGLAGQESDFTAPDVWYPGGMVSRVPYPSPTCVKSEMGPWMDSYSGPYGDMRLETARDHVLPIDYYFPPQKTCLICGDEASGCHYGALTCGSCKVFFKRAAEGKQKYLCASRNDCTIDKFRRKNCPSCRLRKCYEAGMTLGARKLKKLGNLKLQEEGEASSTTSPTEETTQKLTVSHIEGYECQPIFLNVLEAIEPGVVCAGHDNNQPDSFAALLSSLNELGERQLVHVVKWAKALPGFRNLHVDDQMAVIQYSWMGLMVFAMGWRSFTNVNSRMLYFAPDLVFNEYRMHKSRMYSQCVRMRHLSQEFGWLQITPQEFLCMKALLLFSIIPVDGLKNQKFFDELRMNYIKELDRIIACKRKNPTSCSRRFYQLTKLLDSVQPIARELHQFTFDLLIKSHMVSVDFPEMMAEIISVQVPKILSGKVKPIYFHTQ
T7 sequence (P04150 whole entry): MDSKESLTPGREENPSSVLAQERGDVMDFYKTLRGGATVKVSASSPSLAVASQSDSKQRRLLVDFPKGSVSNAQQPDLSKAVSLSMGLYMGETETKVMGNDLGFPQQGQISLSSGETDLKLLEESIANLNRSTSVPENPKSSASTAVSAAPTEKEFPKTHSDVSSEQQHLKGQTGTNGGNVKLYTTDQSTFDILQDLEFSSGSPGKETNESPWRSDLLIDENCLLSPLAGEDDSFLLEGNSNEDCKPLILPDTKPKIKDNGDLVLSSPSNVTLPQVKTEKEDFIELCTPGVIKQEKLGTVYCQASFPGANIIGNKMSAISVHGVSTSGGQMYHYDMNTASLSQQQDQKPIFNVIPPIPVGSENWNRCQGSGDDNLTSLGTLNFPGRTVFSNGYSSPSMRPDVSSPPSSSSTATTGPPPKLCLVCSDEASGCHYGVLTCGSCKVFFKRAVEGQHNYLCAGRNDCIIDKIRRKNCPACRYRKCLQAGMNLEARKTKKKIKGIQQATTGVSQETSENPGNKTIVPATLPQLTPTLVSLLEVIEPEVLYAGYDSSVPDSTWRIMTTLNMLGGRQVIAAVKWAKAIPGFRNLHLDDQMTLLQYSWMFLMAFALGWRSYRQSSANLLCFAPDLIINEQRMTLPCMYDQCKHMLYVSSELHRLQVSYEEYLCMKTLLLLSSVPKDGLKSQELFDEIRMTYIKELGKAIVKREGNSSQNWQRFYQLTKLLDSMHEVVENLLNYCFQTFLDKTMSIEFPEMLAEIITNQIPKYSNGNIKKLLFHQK

Take `CC(=O)[C@@]1(C)CC[C@H]2[C@@H]3CC=C4C[C@@H](OCc5ccccc5)CC[C@]4(C)[C@H]3CC[C@@]21C` [3Bn17MeP, 3β-benzyloxy, 17α-methyl-pregn-5-en-20-one]: the inhibition at 10 µM on Vasopressin V1a was 0%; in series [1], 16%; in series [3], -1%; in series [5] it was -2%; on Neuropetide Y N1, -32%. Also, the “% Inhibition” value at Dopamine D3 (10 μM) was −2%; at Dopamine D4.4 (10 μM), −10%; with Na+ channels Na+-site 2 it was −12%; in the series on Adrenergic alpha1, 5%; on Dopamine D5 (10 μM), −6%; on Serotonin 5-HT6 (10 μM), −1%. The compound further came in with a concentration at 1 month in the series “in vivo” of 1.3 ng/mL. The “Modification of the binding of the 85 receptors” value in the series with 85 receptors (10 μM) is listed as “does not modify the binding of any of the 85 receptors”. In addition, the IC50 on 85 receptors (CEREP High-throughput binding profile (85 receptors), read-out: ID50 (the source's name)) is over 10 µM. Besides, the “Correct responses in the flexibility test (choice accuracy)” value in series [2] is given as “more than 70%”. Moreover, the “Hepatotoxic effect (hepatocyte survival)” value in series [4] was “no hepatotoxic effect”. In addition, the “Effect on THC-induced decrease in cellular respiration” value in series [6] is reported as “insensitive”. Moreover, the Inhibition % in series [7] is listed as −5%.

As to `CC(=O)[C@H]1CC[C@H]2[C@@H]3CC=C4C[C@@H](O)CC[C@]4(C)[C@H]3CC[C@]12C` [pregnenolone, reference compound], the inhibition at 10 µM was 10% at Vasopressin V1a; 11% at Dopamine D3; 20% at Dopamine D4.4; -12% in series [3] (norepinephrine transporter, 10 μM, read-out: % Inhibition); -4% on Dopamine D5; 5% on Serotonin 5-HT6. In addition, on Neuropetide Y N1, the inhibition at 10 µM was -11%. Besides, the “% Inhibition” value in the series on Na+ channels Na+-site 2 stood at 23%; with Adrenergic alpha1 it was 1%. In addition, in series [7], the Inhibition % is 26%.
